Source: patent publication US20050112075A1, “Reduction of hair growth” (priority 2003, published 2005)

Tested on: Human hair follicles in growth phase (anagen)
Assay: Human hair follicle growth assay
Assay type: cell-based
Settings: for Hair follicle length increase (mm), Treated: day 0 to day 7 in culture
Description: Human hair Follicle Growth Assay:
Human hair follicles in growth phase (anagen) were isolated from face-lift tissue (obtained from plastic surgeons) under dissecting scope using a scalpel and watchmakers forceps. The skin was sliced into thin strips exposing 2-3 rows of follicles that could readily be dissected. Follicles were placed into 0.5 ml William's E medium (Life Technologies, Gaithersburg, Md.) supplemented with 2 mM L-glutamine, 10 μg/ml insulin, 10 ng/ml hydrocortisone, 100 units of penicillin, 0.1 mg/ml streptomycin and 0.25 μg/ml amphotericin B. The follicles were incubated in 24-well plates (1 follicle/well) at 37° C. in an atmosphere of 5% CO2 and 95% air. Compounds are dissolved into dimethyl sulfoxide as 100-fold stock solution. The control hair follicles were treated with dimethyl sulfoxide without prostaglandin. The follicles were photographed in the 24-well plates under the dissecting scope at a power of 10×. Typically, image recordings were made on day 0 (day follicles were placed in culture), and again on day 7. The length of hair follicle was assessed using an image analysis software system. The growth of hair fiber was calculated by the subtracting the follicle length on day 0 from that determined on day 7.

[1] = dose 1 μM, dose-dependence study
[2] = dose 5 μM, dose-dependence study
[3] = dose 10 μM, dose-dependence study
[4] = dose 30 μM, vs dimethyl sulfoxide control
[5] = dose 50 μM, vs dimethyl sulfoxide control

Row | Structure (SMILES) | % Reduction of human hair follicle growth [1] [%] | Growth of follicle (mm), Treated [1] [mm] | % Reduction of human hair follicle growth [2] [%] | Growth of follicle (mm), Treated [2] [mm] | % Reduction of human hair follicle growth [3] [%] | Growth of follicle (mm), Treated [3] [mm] | Hair follicle length increase (mm), Treated (dose 30 μM) [mm] | % Reduction of human hair follicle growth [4] [%] | Hair follicle length increase (mm), Treated (dose 50 μM) [mm] | % Reduction of human hair follicle growth [5] [%] | other results
1 | CCCCC[C@H](O)C/C=C1/C(=O)C=C[C@@H]1C/C=C\CCCC(=O)O [Δ^12-PGJ2] | 0.7 | 1.40 ± 0.44 | 10.6 | 1.26 ± 0.38 | 77.3 | 0.32 ± 0.15 | 0.29 ± 0.46 | 84.6 ± 24 | – | – | –
2 | CCCCC[C@@](C)(O)/C=C/[C@H]1C(=O)C[C@H](O)[C@@H]1C/C=C\CCCC(=O)O [15(R)-15-Methyl PGD2] | – | – | – | – | – | – | – | – | 0.04 ± 0.05 | 97.5 ± 3.1 | –
3 | O=C(O)CCC/C=C\C[C@H]1[C@@H](O)CC(=O)[C@@H]1/C=C/[C@@H](O)CCc1ccccc1 [17-Phenyl trinor PGD2] | – | – | – | – | – | – | – | – | 0.10 ± 0.12 | 93.8 ± 7.4 | –
4 | CCCCC[C@H](O)/C=C/[C@H]1C(=O)C=C[C@@H]1C/C=C\CCCC(=O)O [PGJ2] | 9.5 | 1.43 ± 0.34 | 34.8 | 1.03 ± 0.35 | 68.4 | 0.50 ± 0.29 | 0.16 ± 0.25 | 91.5 ± 13 | – | – | Hair growth inhibition profile (dose dependence, in words): dose dependent; Reduction of human hair follicle growth (in words): reduce hair growth
5 | CCCCCC=CC=C1CCC(=O)C1C/C=C\CCCC(=O)O (centres unmarked) [9,10-Dihydro-15-deoxy-^Δ12,14-PGJ2, 9,10-dihydro-15-deoxy-Δ^12,14-PGJ2] | – | – | – | – | – | – | – | – | 0.02 ± 0.03 | 98.8 ± 1.9 | –
6 | C=C1C[C@H](O)[C@H](C/C=C\CCCC(=O)O)[C@H]1/C=C/[C@@H](O)CCCCC [11-Deoxy-11-methylene PGD2] | – | – | – | – | – | – | – | – | 1.11 ± 0.14 | 36.9 ± 8.0 | –
7 | CCCCC[C@](C)(O)/C=C/[C@H]1C(=O)C[C@H](O)[C@@H]1C/C=C\CCCC(=O)O [15(S)-15-Methyl PGD2] | – | – | – | – | – | – | – | – | – | – | Hair follicle length increase (mm), Treated (dose 100 μM): 0.08 ± 0.06 mm; % Reduction of human hair follicle growth (dose 100 μM, vs dimethyl sulfoxide control): 92.7 ± 5.5%
8 | CCCCC(C)(C)[C@H](O)/C=C/[C@H]1C(=O)C[C@H](O)[C@@H]1C/C=C\CCCC(=O)O [16,16-Dimethyl PGD2] | – | – | – | – | – | – | – | – | 0.10 ± 0.05 | 94.3 ± 2.8 | –
9 | CCCCC/C=C/C=C1/C(=O)C=C[C@@H]1C/C=C\CCCC(=O)O [15-Deoxy-Δ^12,14-PGJ2] | 0 | 1.42 ± 0.37 | 34.8 | 0.21 ± 0.13 | 94.3 | 0.08 ± 0.07 | 0.10 ± 0.09 | 94.7 ± 5.0 | – | – | –
10 | CCCCC[C@H](O)/C=C/[C@H]1C(=O)C[C@H](O)[C@@H]1C/C=C\CCCC(=O)O [PGD2, prostaglandin D2] | 4.4 | 1.51 ± 0.28 | 12.7 | 1.38 ± 0.30 | 38.0 | 0.98 ± 0.32 | 0.24 ± 0.10 | 87.3 ± 5.0 | – | – | Hair growth inhibition profile (dose dependence, in words): dose dependent; Reduction of human hair follicle growth (in words): significant reduction of human hair follicle growth
11 | CCCCC/C=C/C=C1/C(=O)C[C@H](O)[C@@H]1C/C=C\CCCC(=O)O [15-Deoxy-Δ^12,14-PGD2] | – | – | – | – | – | – | – | – | 0.10 ± 0.08 | 94.3 ± 4.5 | –
